Laboratory results from PubChem BioAssay (NCI).
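These data come from cells grown in 96-well plates and exposed to compound for 48 hours at five concentrations. TGI marks complete inhibition of growth.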

Tests used:
Assay in all cases: DTP human tumour cell line panel, 48 h
NCI-H226 lung = tested on: NCI-H226 lung
NCI-H23 lung = tested on: NCI-H23 lung
XF 498 CNS = tested on: XF 498 CNS
SNB-75 CNS = tested on: SNB-75 CNS
OVCAR-5 ovarian = tested on: OVCAR-5 ovarian
HCT-15 colon = tested on: HCT-15 colon
RXF 393 renal = tested on: RXF 393 renal
RXF-631 renal = tested on: RXF-631 renal
UACC-257 melanoma = tested on: UACC-257 melanoma
A549 NSCLC = tested on: A549 NSCLC
DMS 114 small cell lung = tested on: DMS 114 small cell lung
MALME-3M melanoma = tested on: MALME-3M melanoma
HOP-92 NSCLC = tested on: HOP-92 NSCLC
SR leukemia = tested on: SR leukemia
HOP-18 NSCLC = tested on: HOP-18 NSCLC
A498 renal = tested on: A498 renal
KM20L2 colon = tested on: KM20L2 colon
HT29 colon = tested on: HT29 colon
SNB-19 CNS = tested on: SNB-19 CNS
SNB-78 CNS = tested on: SNB-78 CNS
EKVX NSCLC = tested on: EKVX NSCLC
HCC-2998 colon = tested on: HCC-2998 colon
K-562 leukemia = tested on: K-562 leukemia
SF-295 CNS = tested on: SF-295 CNS
IGROV1 ovarian = tested on: IGROV1 ovarian
OVCAR-8 ovarian = tested on: OVCAR-8 ovarian
UACC-62 melanoma = tested on: UACC-62 melanoma
SN12C renal = tested on: SN12C renal
UO-31 renal = tested on: UO-31 renal
MOLT-4 leukemia = tested on: MOLT-4 leukemia
LOX IMVI melanoma = tested on: LOX IMVI melanoma
SK-MEL-2 melanoma = tested on: SK-MEL-2 melanoma
OVCAR-3 ovarian = tested on: OVCAR-3 ovarian
CCRF-CEM leukemia = tested on: CCRF-CEM leukemia
SF-539 CNS = tested on: SF-539 CNS
SK-MEL-28 melanoma = tested on: SK-MEL-28 melanoma
786-0 renal = tested on: 786-0 renal
DLD-1 colon = tested on: DLD-1 colon
CAKI-1 renal = tested on: CAKI-1 renal
COLO 205 colon = tested on: COLO 205 colon
RPMI-8226 leukemia = tested on: RPMI-8226 leukemia
KM12 colon = tested on: KM12 colon
OVCAR-4 ovarian = tested on: OVCAR-4 ovarian
DMS 273 small cell lung = tested on: DMS 273 small cell lung
M19-MEL melanoma = tested on: M19-MEL melanoma
U251 CNS = tested on: U251 CNS
HCT-116 colon = tested on: HCT-116 colon
HL-60(TB) leukemia = tested on: HL-60(TB) leukemia
SK-OV-3 ovarian = tested on: SK-OV-3 ovarian
LXFL 529 NSCLC = tested on: LXFL 529 NSCLC
SF-268 CNS = tested on: SF-268 CNS
HOP-62 NSCLC = tested on: HOP-62 NSCLC
M14 melanoma = tested on: M14 melanoma
NCI-H460 lung = tested on: NCI-H460 lung
NCI-H522 lung = tested on: NCI-H522 lung
ACHN renal = tested on: ACHN renal
TK-10 renal = tested on: TK-10 renal
SK-MEL-5 melanoma = tested on: SK-MEL-5 melanoma

CCOC(=O)COS(=O)(=O)C(F)(F)F
TGI (NCI-H226 lung): > 100 µM | TGI (NCI-H23 lung): > 100 µM | TGI (XF 498 CNS): > 100 µM | TGI (SNB-75 CNS): > 100 µM | TGI (OVCAR-5 ovarian): > 100 µM | TGI (HCT-15 colon): 35.1 µM | TGI (RXF 393 renal): > 100 µM | TGI (RXF-631 renal): > 100 µM | TGI (UACC-257 melanoma): > 100 µM | TGI (A549 NSCLC): > 100 µM | TGI (DMS 114 small cell lung): 31.7 µM | TGI (MALME-3M melanoma): > 100 µM | TGI (HOP-92 NSCLC): > 100 µM | TGI (SR leukemia): 49.1 µM | TGI (HOP-18 NSCLC): > 100 µM | TGI (A498 renal): > 100 µM | TGI (KM20L2 colon): > 100 µM | TGI (HT29 colon): > 100 µM | TGI (SNB-19 CNS): > 100 µM | TGI (SNB-78 CNS): > 100 µM | TGI (EKVX NSCLC): > 100 µM | TGI (HCC-2998 colon): > 100 µM | TGI (K-562 leukemia): > 100 µM | TGI (SF-295 CNS): > 100 µM | TGI (IGROV1 ovarian): > 100 µM | TGI (OVCAR-8 ovarian): > 100 µM | TGI (UACC-62 melanoma): > 100 µM | TGI (SN12C renal): > 100 µM | TGI (UO-31 renal): > 100 µM | TGI (MOLT-4 leukemia): > 100 µM | TGI (LOX IMVI melanoma): 34 µM | TGI (SK-MEL-2 melanoma): > 100 µM | TGI (OVCAR-3 ovarian): > 100 µM | TGI (CCRF-CEM leukemia): > 100 µM | TGI (SF-539 CNS): > 100 µM | TGI (SK-MEL-28 melanoma): > 100 µM | TGI (786-0 renal): > 100 µM | TGI (DLD-1 colon): > 100 µM | TGI (CAKI-1 renal): > 100 µM | TGI (COLO 205 colon): > 100 µM | TGI (RPMI-8226 leukemia): 50.5 µM | TGI (KM12 colon): > 100 µM | TGI (OVCAR-4 ovarian): > 100 µM | TGI (DMS 273 small cell lung): 36.7 µM | TGI (M19-MEL melanoma): > 100 µM | TGI (U251 CNS): > 100 µM | TGI (HCT-116 colon): > 100 µM | TGI (HL-60(TB) leukemia): > 100 µM | TGI (SK-OV-3 ovarian): > 100 µM | TGI (LXFL 529 NSCLC): > 100 µM | TGI (SF-268 CNS): > 100 µM | TGI (HOP-62 NSCLC): > 100 µM | TGI (M14 melanoma): > 100 µM | TGI (NCI-H460 lung): > 100 µM | TGI (NCI-H522 lung): > 100 µM | TGI (ACHN renal): > 100 µM | TGI (TK-10 renal): > 100 µM | TGI (SK-MEL-5 melanoma): > 100 µM

Cc1nn(-c2ccccc2)c(-c2ccccc2[N+](=O)[O-])c1CC#N
TGI (NCI-H23 lung): > 100 µM | TGI (XF 498 CNS): > 100 µM | TGI (SNB-75 CNS): > 100 µM | TGI (OVCAR-5 ovarian): > 100 µM | TGI (HCT-15 colon): > 100 µM | TGI (RXF 393 renal): > 100 µM | TGI (RXF-631 renal): > 100 µM | TGI (UACC-257 melanoma): > 100 µM | TGI (A549 NSCLC): > 100 µM | TGI (DMS 114 small cell lung): > 100 µM | TGI (MALME-3M melanoma): > 100 µM | TGI (HOP-92 NSCLC): > 100 µM | TGI (KM20L2 colon): > 100 µM | TGI (SNB-19 CNS): > 100 µM | TGI (SNB-78 CNS): > 100 µM | TGI (EKVX NSCLC): > 100 µM | TGI (HCC-2998 colon): > 100 µM | TGI (K-562 leukemia): > 100 µM | TGI (SF-295 CNS): > 100 µM | TGI (IGROV1 ovarian): > 100 µM | TGI (OVCAR-8 ovarian): > 100 µM | TGI (UACC-62 melanoma): > 100 µM | TGI (SN12C renal): > 100 µM | TGI (UO-31 renal): > 100 µM | TGI (MOLT-4 leukemia): > 100 µM | TGI (LOX IMVI melanoma): > 100 µM | TGI (SK-MEL-2 melanoma): > 100 µM | TGI (OVCAR-3 ovarian): > 100 µM | TGI (CCRF-CEM leukemia): > 100 µM | TGI (SF-539 CNS): > 100 µM | TGI (SK-MEL-28 melanoma): > 100 µM | TGI (786-0 renal): > 100 µM | TGI (CAKI-1 renal): > 100 µM | TGI (COLO 205 colon): > 100 µM | TGI (RPMI-8226 leukemia): > 100 µM | TGI (KM12 colon): > 100 µM | TGI (OVCAR-4 ovarian): > 100 µM | TGI (DMS 273 small cell lung): > 100 µM | TGI (M19-MEL melanoma): > 100 µM | TGI (HL-60(TB) leukemia): > 100 µM | TGI (SK-OV-3 ovarian): > 100 µM | TGI (LXFL 529 NSCLC): > 100 µM | TGI (SF-268 CNS): > 100 µM | TGI (HOP-62 NSCLC): > 100 µM | TGI (M14 melanoma): > 100 µM | TGI (NCI-H460 lung): > 100 µM | TGI (NCI-H522 lung): > 100 µM | TGI (ACHN renal): > 100 µM | TGI (TK-10 renal): > 100 µM | TGI (SK-MEL-5 melanoma): > 100 µM
